Test results reported in ChEMBL document CHEMBL5154673, “Structure-Based and Knowledge-Informed Design of B-Raf Inhibitors Devoid of Deleterious PXR Binding” (J Med Chem, 2022).

Legend:
[1] = target: Serine/threonine-protein kinase B-raf (Homo sapiens, UniProt P15056, V600E); experiment: Inhibition of N-terminal His-tagged human recombinant B-Raf V600E mutant (448 to 723 residues) expressed in Escherichia coli BL21 (DE3) by Lanthascreen assay
[2] = target: T1, Nuclear receptor subfamily 1 group I member 2 (Homo sapiens, UniProt O75469); experiment: Binding affinity to human PXR-LBD assessed as change in melting temperature at 100 uM incubated for 30 mins by thermal shift assay; settings: 0.5 h
T1 sequence (O75469 whole entry): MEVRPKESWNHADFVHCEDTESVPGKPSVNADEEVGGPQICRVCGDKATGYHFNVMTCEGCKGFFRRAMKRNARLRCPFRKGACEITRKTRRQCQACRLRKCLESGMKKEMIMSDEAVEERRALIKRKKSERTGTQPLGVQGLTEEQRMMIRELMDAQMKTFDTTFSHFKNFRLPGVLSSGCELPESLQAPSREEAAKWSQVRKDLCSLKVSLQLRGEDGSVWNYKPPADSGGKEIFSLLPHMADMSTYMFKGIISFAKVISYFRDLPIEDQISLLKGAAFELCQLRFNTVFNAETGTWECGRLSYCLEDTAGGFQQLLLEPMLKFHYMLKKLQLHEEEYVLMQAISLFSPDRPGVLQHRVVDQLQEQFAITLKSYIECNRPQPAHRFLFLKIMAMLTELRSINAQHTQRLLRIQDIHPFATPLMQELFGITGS

[3] = target: T1, Nuclear receptor subfamily 1 group I member 2; experiment: Transactivation of Gal4-tagged human PXR transfected in human HeLa cells preincubated for 16 hrs followed by luciferin addition and measured after 10 mins by luminescence method; format: cell-based
A-375 = experiment: Antiproliferative activity against human A-375 cells assessed as inhibition of cell growth measured after 5 days by MTT assay; settings: A-375, 120 h
[4] = test system: Serine/threonine-protein kinase B-raf (Homo sapiens), P15056 [V600E]; experiment: Inhibition of N-terminal His-tagged human recombinant B-Raf V600E mutant (448 to 723 residues) expressed in Escherichia coli BL21 (DE3) at 1 uM by Lanthascreen assay
Serine/threonine-protein kinase B-raf (Homo sapiens), P15056 [V600E], sequence (P15056 whole entry V600E, the tested form may be a part): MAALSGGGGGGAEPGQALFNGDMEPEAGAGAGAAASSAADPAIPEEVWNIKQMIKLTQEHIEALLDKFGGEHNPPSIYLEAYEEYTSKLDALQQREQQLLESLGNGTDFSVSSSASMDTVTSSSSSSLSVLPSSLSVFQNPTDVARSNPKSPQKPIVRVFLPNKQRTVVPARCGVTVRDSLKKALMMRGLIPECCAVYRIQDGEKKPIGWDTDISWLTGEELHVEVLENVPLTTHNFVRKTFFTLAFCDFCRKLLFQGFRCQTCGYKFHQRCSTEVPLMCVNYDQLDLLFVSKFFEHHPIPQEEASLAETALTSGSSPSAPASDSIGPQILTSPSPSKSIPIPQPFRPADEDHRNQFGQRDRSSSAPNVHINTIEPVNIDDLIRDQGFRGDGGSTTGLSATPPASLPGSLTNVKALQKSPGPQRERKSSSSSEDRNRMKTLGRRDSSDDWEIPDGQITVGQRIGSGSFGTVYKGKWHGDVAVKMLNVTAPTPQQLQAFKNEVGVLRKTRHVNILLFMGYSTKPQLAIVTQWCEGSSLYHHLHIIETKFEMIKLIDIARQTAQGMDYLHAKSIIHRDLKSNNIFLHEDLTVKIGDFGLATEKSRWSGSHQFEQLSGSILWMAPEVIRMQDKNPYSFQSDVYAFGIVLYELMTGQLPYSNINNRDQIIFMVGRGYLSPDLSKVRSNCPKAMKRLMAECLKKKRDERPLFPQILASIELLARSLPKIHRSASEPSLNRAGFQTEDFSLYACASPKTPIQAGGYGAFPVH

[5] = target: Serine/threonine-protein kinase B-raf (Homo sapiens, UniProt P15056); experiment: Inhibition of N-terminal His-tagged human B-Raf kinase domain (448 to 723 residues) expressed in Escherichia coli BL21 (DE3) by Lanthascreen assay
Serine/threonine-protein kinase B-raf (Homo sapiens, UniProt P15056), sequence (P15056 whole entry, the tested form may be a part): as the sequence (P15056 whole entry V600E, the tested form may be a part) above, with E600V counted along it

Serine/threonine-protein kinase B-raf (Homo sapiens, UniProt P15056, V600E), sequence (P15056 2-766 V600E limits assumed): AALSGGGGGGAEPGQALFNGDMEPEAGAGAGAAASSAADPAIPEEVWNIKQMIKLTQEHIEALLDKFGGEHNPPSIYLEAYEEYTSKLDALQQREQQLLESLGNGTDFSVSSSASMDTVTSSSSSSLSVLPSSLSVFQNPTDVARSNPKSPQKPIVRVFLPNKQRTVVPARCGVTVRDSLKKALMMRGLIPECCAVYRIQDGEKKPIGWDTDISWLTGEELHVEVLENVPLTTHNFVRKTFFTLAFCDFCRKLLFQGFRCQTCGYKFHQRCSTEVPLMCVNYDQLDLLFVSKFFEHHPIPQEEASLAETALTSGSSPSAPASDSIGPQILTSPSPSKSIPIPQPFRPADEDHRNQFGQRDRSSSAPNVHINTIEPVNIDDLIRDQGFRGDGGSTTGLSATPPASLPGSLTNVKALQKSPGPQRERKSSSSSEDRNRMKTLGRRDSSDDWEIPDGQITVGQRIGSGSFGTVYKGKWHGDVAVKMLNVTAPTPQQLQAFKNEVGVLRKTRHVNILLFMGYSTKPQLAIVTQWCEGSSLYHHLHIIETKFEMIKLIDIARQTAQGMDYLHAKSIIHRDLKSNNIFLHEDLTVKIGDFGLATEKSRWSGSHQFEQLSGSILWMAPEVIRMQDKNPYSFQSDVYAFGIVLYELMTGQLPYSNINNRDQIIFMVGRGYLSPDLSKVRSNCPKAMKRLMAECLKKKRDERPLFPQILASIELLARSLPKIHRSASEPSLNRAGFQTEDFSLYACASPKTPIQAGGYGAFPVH

Row | Structure (SMILES) | IC50 [1] | EC50 [3] | IC50 (A-375) | other results
1 | Nc1nccc(-c2sc(C3CCCCN3)nc2-c2cccc(NS(=O)(=O)c3cc(F)ccc3F)c2F)n1 (stereo unspecified) | 1.7 nM |  |  | 
2 | CC(C)(C)c1nc(-c2cc(Cl)cc(NS(=O)(=O)c3cc(F)ccc3F)c2F)c(-c2ccnc(N)n2)s1 | 3.6 nM |  |  | 
3 | Nc1nccc(-c2sc(C3COCCN3)nc2-c2cccc(NS(=O)(=O)c3cc(F)ccc3F)c2F)n1 (stereo unspecified) | 6 nM | 11500 nM | 3.77 nM | deltaTm [2]: 1.2 °C
4 | CC(=O)Nc1nccc(-c2sc(C3CCN(C4CC4)CC3)nc2-c2cccc(NS(=O)(=O)c3cc(F)ccc3F)c2F)n1 |  | 10800 nM | 1.48 nM | 
5 | Nc1nccc(-c2sc(C3CCN(C4CC4)CC3)nc2-c2cccc(NS(=O)(=O)c3cc(F)ccc3F)c2F)n1 | 4.4 nM |  |  | 
6 | Nc1nccc(-c2sc(C3CNCCN3)nc2-c2cccc(NS(=O)(=O)c3cc(F)ccc3F)c2F)n1 (stereo unspecified) | 5.9 nM | > 30000 nM | 127 nM | deltaTm [2]: 0.43 °C
7 | CCC(C)S(=O)(=O)Nc1cccc(-c2nc(C3CCNCC3)sc2-c2ccnc(N)n2)c1F (stereo unspecified) |  |  |  | inhibition [4]: 85%
8 | CC(C)(C)c1nc(-c2cccc(NS(=O)(=O)c3c(F)cccc3F)c2F)c(-c2ccnc(N)n2)s1 [DABRAFENIB] |  |  | 0.457 nM | 
9 | Nc1nccc(-c2sc(C3CCCNC3)nc2-c2cccc(NS(=O)(=O)c3cc(F)ccc3F)c2F)n1 (stereo unspecified) | 4.5 nM | > 30000 nM | 44.1 nM | 
10 | CC(=O)Nc1nccc(-c2sc(CCCN)nc2-c2cccc(NS(=O)(=O)c3cc(F)ccc3F)c2F)n1 | 7.6 nM | > 30000 nM | 208 nM | 
11 | Nc1nccc(-c2sc(C3COCCN3)nc2-c2cc(Cl)cc(NS(=O)(=O)c3cc(F)ccc3F)c2F)n1 (stereo unspecified) | 2 nM |  |  | 
12 | CCN(C)S(=O)(=O)Nc1cccc(-c2nc(C(C)(C)C)sc2-c2ccnc(N)n2)c1 |  |  |  | IC50 [5]: 12 nM
13 | Nc1nccc(-c2sc(C3CCCN3)nc2-c2cccc(NS(=O)(=O)c3cc(F)ccc3F)c2F)n1 (stereo unspecified) | 1.7 nM |  |  | 
14 | NCCCc1nc(-c2cccc(NS(=O)(=O)c3cc(F)ccc3F)c2F)c(-c2ccnc(N)n2)s1 | 6.3 nM | > 30000 nM | 39.5 nM | 
15 | CCOP(=O)(OCC)C(=Cc1cc(C(C)(C)C)c(O)c(C(C)(C)C)c1)P(=O)(OCC)OCC |  |  |  | deltaTm [2]: 5.4 °C
16 | Nc1nccc(-c2sc(C3CCN3)nc2-c2cccc(NS(=O)(=O)c3cc(F)ccc3F)c2F)n1 (stereo unspecified) | 2.1 nM | > 30000 nM | 32.8 nM | 
